Data on 23 compounds can be found in patent US10457654B2 (GENENTECH, INC., priority 2017, dated 2019).

Counter-ions that a name gives are not always drawn.

Experiment [1] addresses T1, hNav1.7 (Homo sapiens (Human), UniProt Q15858). Briefly: Patch voltage clamp electrophysiology assay (EP), Syncropatch 384PE, CHO cells expressing Nav1.7. Type of experiment: cell-based. The settings on record: holding potential -50 mV; […] compound incubation; read-out: EP_SP hNav1.7 (Ex. 243B) IC50. The protocol: Electrophysiological Assay (EP) (In Vitro Assay)
The following voltage clamp electrophysiology studies were performed on representative compounds using cells heterologously expressing Nav1.7 or Nav1.5 channels. cDNAs for Nav1.7 (NM_002977) and Nav1.5 (AC137587) were stably expressed in Chinese Hamstr Ovary (CHO) cells and CHL (Chinese Hamster Lung) cells respectively. […] Internal solution consists of (in mM): 110 […], 10 […], 20 EGTA, and 10 Hepes (pH adjusted to 7.2); and external solution contains (in mM): 60 NMDG, 80 NaCl, 4 KCl, 1 MgCl2, 2 CaCl2, 2 D-Glucose monohydrate, 10 Hepes (pH adjusted to 7.4 with NaOH).
The chip is moved into the measuring head and the instrument primes the chip with external and internal solutions. […] cells are added to the chip from a cell hotel, and a negative pressure of −50 mBar is applied to form a seal. Following treatment with seal enhancer solution and wash-off with external solution, negative pressure of −250 mbar is applied for 1 second to achieve the whole-cell configuration, followed by three washing steps in external solution. 20 μl of compounds is added to 40 μl in each well (1:3 dilution of compounds), and after mixing, 20 μl is removed so the volume is retained at 40 μl.
For voltage protocol, an holding potential of −50 mV is applied during the whole experiment. A depolarizing step is applied to −10 mV for 10 ms, followed by a hyperpolarization step to −150 mV for 20 ms to allow channel recovery from inactivation. A second depolarizing step is applied from −150 mV to −10 mV for 10 ms, where currents were measured to derive blocking effects of compounds. Inhibition is determined based on 7.5 min of compound incubation.
A general note: The patch-clamp technique gives a direct electrical read-out from membranes.
Target sequence in this assay (Q15858 other isoform, or with tags, fused parts or gaps): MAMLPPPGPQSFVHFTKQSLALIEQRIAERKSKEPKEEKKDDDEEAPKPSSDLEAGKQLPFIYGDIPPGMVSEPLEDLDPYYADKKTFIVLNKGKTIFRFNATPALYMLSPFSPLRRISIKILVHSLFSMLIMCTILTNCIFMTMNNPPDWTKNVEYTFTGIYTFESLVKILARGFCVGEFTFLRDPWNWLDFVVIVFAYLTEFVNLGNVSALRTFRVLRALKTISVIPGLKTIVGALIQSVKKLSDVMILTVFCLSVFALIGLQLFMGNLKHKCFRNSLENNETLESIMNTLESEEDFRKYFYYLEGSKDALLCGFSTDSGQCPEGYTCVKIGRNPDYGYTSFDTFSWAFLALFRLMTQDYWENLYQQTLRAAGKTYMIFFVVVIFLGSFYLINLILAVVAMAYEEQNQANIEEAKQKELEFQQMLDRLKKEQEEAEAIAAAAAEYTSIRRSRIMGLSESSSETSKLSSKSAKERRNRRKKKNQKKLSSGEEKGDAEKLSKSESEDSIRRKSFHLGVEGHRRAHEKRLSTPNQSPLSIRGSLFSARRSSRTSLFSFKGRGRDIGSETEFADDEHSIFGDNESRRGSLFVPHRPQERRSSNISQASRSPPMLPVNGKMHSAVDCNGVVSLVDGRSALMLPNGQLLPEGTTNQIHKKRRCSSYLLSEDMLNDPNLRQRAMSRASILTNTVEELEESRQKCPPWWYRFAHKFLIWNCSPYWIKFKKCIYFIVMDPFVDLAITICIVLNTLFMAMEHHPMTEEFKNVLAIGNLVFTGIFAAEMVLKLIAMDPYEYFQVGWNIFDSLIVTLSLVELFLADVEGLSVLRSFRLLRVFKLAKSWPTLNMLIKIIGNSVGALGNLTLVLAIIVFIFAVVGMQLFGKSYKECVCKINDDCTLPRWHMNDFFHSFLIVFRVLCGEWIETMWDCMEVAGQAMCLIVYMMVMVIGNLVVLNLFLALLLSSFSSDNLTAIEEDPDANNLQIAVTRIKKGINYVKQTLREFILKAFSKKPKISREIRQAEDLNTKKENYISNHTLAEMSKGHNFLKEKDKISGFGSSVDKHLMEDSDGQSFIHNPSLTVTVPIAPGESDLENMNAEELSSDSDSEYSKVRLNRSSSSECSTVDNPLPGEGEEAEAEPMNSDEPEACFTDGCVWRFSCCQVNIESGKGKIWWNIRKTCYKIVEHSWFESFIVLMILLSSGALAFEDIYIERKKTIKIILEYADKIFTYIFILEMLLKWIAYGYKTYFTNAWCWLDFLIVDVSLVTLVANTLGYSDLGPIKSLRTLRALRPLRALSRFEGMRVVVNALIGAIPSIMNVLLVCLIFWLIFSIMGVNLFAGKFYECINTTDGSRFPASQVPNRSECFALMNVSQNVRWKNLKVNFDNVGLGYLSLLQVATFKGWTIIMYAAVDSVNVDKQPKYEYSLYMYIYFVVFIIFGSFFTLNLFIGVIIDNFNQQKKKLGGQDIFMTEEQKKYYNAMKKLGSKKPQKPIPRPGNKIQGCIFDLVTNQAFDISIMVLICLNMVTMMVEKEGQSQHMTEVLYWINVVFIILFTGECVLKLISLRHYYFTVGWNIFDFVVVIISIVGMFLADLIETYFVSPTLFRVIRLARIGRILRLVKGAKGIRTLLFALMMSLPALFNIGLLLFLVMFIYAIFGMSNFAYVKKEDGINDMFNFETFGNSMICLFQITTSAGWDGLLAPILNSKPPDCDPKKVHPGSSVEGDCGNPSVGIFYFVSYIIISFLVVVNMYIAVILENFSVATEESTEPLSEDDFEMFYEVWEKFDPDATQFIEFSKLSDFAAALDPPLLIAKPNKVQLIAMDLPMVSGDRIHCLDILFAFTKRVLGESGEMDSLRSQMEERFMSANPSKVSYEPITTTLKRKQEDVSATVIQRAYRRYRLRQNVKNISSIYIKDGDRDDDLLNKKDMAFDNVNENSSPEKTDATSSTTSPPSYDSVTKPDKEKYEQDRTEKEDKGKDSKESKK

For experiment [2], the target named is T1, hNav1.7. Briefly: Tritiated compound binding to membranes from cells expressing hNav1.7 and the β1 subunit, modified protocol (LBA, Ex. 243B). The settings on record: 300 pM [3H]compound, room temperature, read-out: Nav1.7 LBA (Ex. 243B) IC50.
Target sequence in this assay (Q15858 whole entry, looked up): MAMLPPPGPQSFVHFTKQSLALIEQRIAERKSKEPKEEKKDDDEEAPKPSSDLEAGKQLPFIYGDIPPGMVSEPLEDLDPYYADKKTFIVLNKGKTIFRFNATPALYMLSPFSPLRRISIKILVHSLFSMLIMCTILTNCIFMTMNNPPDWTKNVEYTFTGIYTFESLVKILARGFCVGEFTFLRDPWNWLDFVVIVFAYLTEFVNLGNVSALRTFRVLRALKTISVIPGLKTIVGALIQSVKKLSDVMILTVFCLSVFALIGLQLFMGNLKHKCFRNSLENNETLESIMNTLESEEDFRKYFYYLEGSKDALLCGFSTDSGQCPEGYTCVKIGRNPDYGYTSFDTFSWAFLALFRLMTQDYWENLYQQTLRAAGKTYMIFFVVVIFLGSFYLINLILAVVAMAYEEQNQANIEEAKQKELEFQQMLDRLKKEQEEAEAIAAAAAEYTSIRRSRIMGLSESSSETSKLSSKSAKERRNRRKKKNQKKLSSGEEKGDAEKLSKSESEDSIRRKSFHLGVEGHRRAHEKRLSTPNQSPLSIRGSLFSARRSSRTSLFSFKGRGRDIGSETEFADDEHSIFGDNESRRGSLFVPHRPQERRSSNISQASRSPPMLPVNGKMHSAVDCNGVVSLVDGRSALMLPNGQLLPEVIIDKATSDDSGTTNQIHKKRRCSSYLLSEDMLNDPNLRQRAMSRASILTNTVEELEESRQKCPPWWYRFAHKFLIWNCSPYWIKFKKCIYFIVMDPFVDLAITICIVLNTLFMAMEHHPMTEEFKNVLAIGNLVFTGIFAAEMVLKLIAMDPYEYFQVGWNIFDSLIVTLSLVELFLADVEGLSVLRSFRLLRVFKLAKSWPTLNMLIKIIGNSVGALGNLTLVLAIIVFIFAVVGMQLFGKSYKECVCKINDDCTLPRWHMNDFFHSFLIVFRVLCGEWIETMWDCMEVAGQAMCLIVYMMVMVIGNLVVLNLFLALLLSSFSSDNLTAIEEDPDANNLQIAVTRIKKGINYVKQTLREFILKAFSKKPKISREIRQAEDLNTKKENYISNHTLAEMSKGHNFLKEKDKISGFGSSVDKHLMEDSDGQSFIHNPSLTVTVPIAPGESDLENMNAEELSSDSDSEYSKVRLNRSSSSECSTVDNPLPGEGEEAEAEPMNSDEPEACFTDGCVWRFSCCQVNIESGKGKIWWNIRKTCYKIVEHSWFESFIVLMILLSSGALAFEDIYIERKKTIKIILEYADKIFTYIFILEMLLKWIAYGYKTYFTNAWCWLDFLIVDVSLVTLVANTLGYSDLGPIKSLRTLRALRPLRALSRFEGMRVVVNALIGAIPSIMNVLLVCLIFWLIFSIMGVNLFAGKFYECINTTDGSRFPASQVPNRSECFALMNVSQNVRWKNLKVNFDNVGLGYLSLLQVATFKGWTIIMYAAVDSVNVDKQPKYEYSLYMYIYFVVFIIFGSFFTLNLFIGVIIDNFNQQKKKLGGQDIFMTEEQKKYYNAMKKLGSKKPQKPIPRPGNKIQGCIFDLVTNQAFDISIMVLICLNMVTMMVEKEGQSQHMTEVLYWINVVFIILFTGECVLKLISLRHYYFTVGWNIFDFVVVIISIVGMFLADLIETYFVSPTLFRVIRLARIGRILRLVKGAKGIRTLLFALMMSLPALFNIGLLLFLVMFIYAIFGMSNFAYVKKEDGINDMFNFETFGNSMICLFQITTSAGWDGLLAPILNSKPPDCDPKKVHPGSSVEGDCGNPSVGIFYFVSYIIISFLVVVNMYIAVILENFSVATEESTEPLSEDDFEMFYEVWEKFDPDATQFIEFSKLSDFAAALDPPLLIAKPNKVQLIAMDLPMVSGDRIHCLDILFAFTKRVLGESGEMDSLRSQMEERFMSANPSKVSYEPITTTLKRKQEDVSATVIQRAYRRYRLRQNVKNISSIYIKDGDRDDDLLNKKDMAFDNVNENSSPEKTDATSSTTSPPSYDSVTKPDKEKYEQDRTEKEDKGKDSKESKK
Target sequence in this assay (Q07699 whole entry partner, looked up): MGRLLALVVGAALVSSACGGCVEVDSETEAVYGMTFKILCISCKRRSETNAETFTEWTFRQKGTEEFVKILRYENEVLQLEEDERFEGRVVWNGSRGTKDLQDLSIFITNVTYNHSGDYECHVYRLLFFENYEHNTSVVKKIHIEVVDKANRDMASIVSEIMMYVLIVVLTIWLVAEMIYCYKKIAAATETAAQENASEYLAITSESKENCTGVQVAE

For orientation: IC50 means the point on the concentration scale where inhibition reaches its midpoint. Consider `CN(c1cnn(C)c1)[C@H]1CCCC[C@@H]1Nc1cc(F)c(S(=O)(=O)Nc2nccs2)cc1Cl` [Example 140, 5-chloro-2-fluoro-4-(((1S,2S)-2-(methyl(1-methyl-1H-pyrazol-4-yl)amino)cyclohexyl)amino)-N-(thiazol-2-yl)benzenesulfonamide], for which the IC50 was found to be 13.2 nM on hNav1.7 [1] and 170 nM at hNav1.7 [2].

Take `N#C[C@@H]1CCCN([C@H]2CCCC[C@@H]2Nc2cc(F)c(S(=O)(=O)Nc3nccs3)cc2Cl)C1` [Example 176, 5-Chloro-4-(((1S,2S)-2-((R)-3-cyanopiperidin-1-yl)cyclohexyl)amino)-2-fluoro-N-(thiazol-2-yl)benzenesulfonamide]: the IC50 at hNav1.7 [1] worked out at 8.72 nM; on hNav1.7 [2] it was 491 nM.

As to `CN(C)[C@H]1C[C@@H](c2cccc(C3CC3)c2)CC[C@@H]1Nc1cc(F)c(S(=O)(=O)Nc2ccncn2)cc1Cl` [Example 219, 5-chloro-4-(((1S,2S,4S)-4-(3-cyclopropylphenyl)-2-(dimethyamino)cyclohexyl)amino)-2-fluoro-N-(pyrimidin-4-yl)benzenesulfonamide], the IC50 stood at 0.942 nM on hNav1.7 [1] and 1.71 nM on hNav1.7 [2].

Consider `O=S(=O)(Nc1nccs1)c1cc(Cl)c(N[C@H]2CCCC[C@@H]2N2CCC[C@H]2CO)cc1F` [Example 134, 5-chloro-2-fluoro-4-(((1S,2S)-2-((S)-2-(hydroxymethyl)pyrrolidin-1-yl)cyclohexyl)amino)-N-(thiazol-2-yl)benzenesulfonamide], for which the 50% inhibitory concentration (IC50) came to 18.6 nM on hNav1.7 [1] and 279 nM at hNav1.7 [2].

As to `O=S(=O)(Nc1ccncn1)c1cc(Cl)c(N[C@H]2CCCC[C@@H]2N2CCC[C@](F)(CO)C2)cc1F` [Example 221, 5-Chloro-2-fluoro-4-(((1S,2S)-2-((R)-3-fluoro-3-(hydroxymethyl)piperidin-1-yl)cyclohexyl)amino)-N-(pyrimidin-4-yl)benzenesulfonamide], the figures for the IC50 on hNav1.7 [1] and at hNav1.7 [2] were 62.9 nM and 298 nM, respectively.

Turning to `CN(CC(O)C(F)F)[C@H]1CCCC[C@@H]1Nc1cc(F)c(S(=O)(=O)Nc2nccs2)cc1Cl` (single isomer, unassigned) [Example 127], the concentration for half-maximal inhibition (IC50) on hNav1.7 [1] is 6.58 nM; at hNav1.7 [2], 61.5 nM.

As for `CN1CC[C@H](C(=O)N(C)[C@H]2CCCC[C@@H]2Nc2cc(F)c(S(=O)(=O)Nc3nccs3)cc2Cl)C1` [Example 199, (S)—N-((1S,2S)-2-((2-chloro-5-fluoro-4-(N-(thiazol-2-yl)sufamoyl)phenyl)amino)cyclohexyl)-N,1-dimethylpyrrolidine-3-carboxamide], the IC50 on hNav1.7 [1] is 18.7 nM; on hNav1.7 [2], 131 nM.

For `O=S(=O)(Nc1nccs1)c1cc(Cl)c(N[C@H]2CCCC[C@@H]2N2CCC[C@H](CO)C2)cc1F` [Example 168, 5-chloro-2-fluoro-4-(((1S,2S)-2-((S)-3-(hydroxymethyl)piperidin-1-yl)cyclohexyl)amino)-N-(thiazol-2-yl)benzenesulfonamide formate], the IC50 on hNav1.7 [1] is 5.16 nM; on hNav1.7 [2], 40 nM.

Take `CN(C)[C@H]1CCC(c2ccccc2F)C[C@@H]1Nc1cc(F)c(S(=O)(=O)Nc2nccs2)cc1Cl` (stereo in doubt) [Example 173, 5-chloro-4-(((1S,2S,5R)-2-(dimethylamino)-5-(2-fluorophenyl)cyclohexyl)amino)-2-fluoro-N-(thiazol-2-yl)benzenesulfonamide]: the IC50 turned out to be 2.6 nM at hNav1.7 [1] and 17.7 nM at hNav1.7 [2].

As to `CN(CC1(F)CC1)[C@H]1CCCC[C@@H]1Nc1cc(F)c(S(=O)(=O)Nc2nccs2)cc1Cl` [Example 136, 5-chloro-2-fluoro-4-(((1S,2S)-2-(((1-fluorocyclopropyl)methyl)(methyl)amino)cyclohexyl)amino)-N-(thiazol-2-yl)benzenesulfonamide], the IC50 amounted to 30.1 nM on hNav1.7 [1] and 493 nM on hNav1.7 [2].

For the compound `O=S(=O)(Nc1nccs1)c1cc(Cl)c(N[C@H]2CCCC[C@@H]2N2CCC[C@](F)(CO)C2)cc1F` [Example 212, 5-Chloro-2-fluoro-4-(((1S,2S)-2-((R)-3-fluoro-3-(hydroxymethyl)piperidin-1-yl)cyclohexyl)amino)-N-(thiazol-2-yl)benzenesulfonamide], the IC50 on hNav1.7 [1] amounted to 6.59 nM; on hNav1.7 [2] it was 110 nM.

Regarding `O=S(=O)(Nc1ccncn1)c1cc(Cl)c(N[C@H]2CCCC[C@@H]2N2CC3CC3C2)cc1F` (stereo partly drawn) [Example 151, 4-(((1S,2S)-2-(3-azabicyclo[3.1.0]hexan-3-yl)cyclohexyl)amino)-5-chloro-2-fluoro-N-(pyrimidin-4-yl)benzenesulfonamide], the results for the IC50 at hNav1.7 [1] and on hNav1.7 [2] were 20.1 nM and 181 nM, respectively.

Turning to `CN(C)CC(=O)N(C)[C@H]1CCCC[C@@H]1Nc1cc(F)c(S(=O)(=O)Nc2nccs2)cc1Cl` [Example 167, N-((1S,2S)-2-((2-chloro-5-fluoro-4-(N-(thiazol-2-yl)sulfamoyl)phenyl)amino)cyclohexyl)-2-(dimethylamino)-N-methylacetamide], the IC50 on hNav1.7 [1] was determined as 18.7 nM; on hNav1.7 [2] it was 91.7 nM.

Regarding `O=S(=O)(Nc1cccc(F)n1)c1cc(Cl)c(N[C@@H]2CCCC[C@H]2N2CCCCC2)cc1F` [Example 117, 5-chloro-2-fluoro-N-(6-fluoropyridin-2-yl)-4-(((1R,2R)-2-(piperidin-1-yl)cyclohexyl)amino)benzenesulfonamide], the figures for the IC50 on hNav1.7 [1] and at hNav1.7 [2] were 970 nM and 2220 nM, respectively.

As to `CC(C)CC(=O)N1CC(N(C)[C@H]2CCCC[C@@H]2Nc2cc(F)c(S(=O)(=O)Nc3nccs3)cc2Cl)C1` [Example 147, 5-Chloro-2-fluoro-4-(((1S,2S)-2-(methyl(1-(3-methylbutanoyl)azetidin-3-yl)amino)cyclohexyl)amino)-N-(thiazol-2-yl)benzenesulfonamide], the IC50 at hNav1.7 [1] is 27.2 nM; at hNav1.7 [2], 275 nM.

As to `O=S(=O)(Nc1ccncn1)c1cc(Cl)c(N[C@H]2CC[C@H](c3cccc(C(F)(F)F)c3)C[C@@H]2N2CCCC2)cc1F` [Example 242, 5-chloro-2-fluoro-N-(pyrimidin-4-yl)-4-(((1S,2S,4S)-2-(pyrrolidin-1-yl)-4-(3 (trifluoromethyl)phenyl)cyclohexyl)amino)benzenesulfonamide], the results for the IC50 on hNav1.7 [1] and at hNav1.7 [2] were 0.182 nM and 0.428 nM, respectively.

Regarding `O=S(=O)(Nc1nccs1)c1cc(Cl)c(N[C@H]2CCCC[C@@H]2N2CCC(F)CC2)cc1F` [Example 113, 5-chloro-2-fluoro-4-(((1S,2S)-2-(4-fluoropiperidin-1-yl)cyclohexyl)amino)-N-(thiazol-2-yl)benzenesulfonamide], the values for the IC50 at hNav1.7 [1] and at hNav1.7 [2] were 11.7 nM and 185 nM, respectively.

Regarding `CN(CCO)[C@H]1C[C@@H](C(F)(F)F)CC[C@@H]1Nc1cc(F)c(S(=O)(=O)Nc2nccs2)cc1Cl` [Example 138, 5-chloro-2-fluoro-4-(((1S,2S,4S)-2-((2-hydroxyethyl)(methyl)amino)-4-(trifluoromethyl)cyclohexyl)amino)-N-(thiazol-2-yl)benzenesulfonamide], the half-maximal inhibitory concentration (IC50) came to 3.21 nM at hNav1.7 [1] and 9.43 nM on hNav1.7 [2].

As for `Cc1csc(NS(=O)(=O)c2cc(Cl)c(N[C@H]3CCCC[C@@H]3N(C)CCO)cc2F)n1` [Example 111, 5-chloro-2-fluoro-4-(((1S,2S)-2-((2-hydroxyethyl)(methyl)amino)cyclohexyl)amino)-N-(4-methylthiazol-2-yl)benzenesulfonamide], the results for the IC50 at hNav1.7 [1] and on hNav1.7 [2] were 23.4 nM and 678 nM, respectively.

Consider `CC(=O)N(C)[C@H]1CCCC[C@@H]1Nc1cc(F)c(S(=O)(=O)Nc2nccs2)cc1Cl` [Example 166, N-((1S,2S)-2-((2-Chloro-5-fluoro-4-(N-(thiazol-2-yl)sulfamoyl)phenyl)amino)cyclohexyl)-N-methylacetamide], for which the results for the IC50 at hNav1.7 [1] and at hNav1.7 [2] were 13.9 nM and 341 nM, respectively.

`CN(C)[C@@H]1C[C@H]2[C@@H](C[C@H]1Nc1cc(F)c(S(=O)(=O)Nc3nccs3)cc1Cl)C2(Cl)Cl` [Example 197, 5-Chloro-4-(((1R,3R,4R,6S)-7,7-dichloro-4-(dimethylamino)bicyclo[4.1.0]heptan-3-yl)amino)-2-fluoro-N-(thiazol-2-yl)benzenesulfonamide formate]: the IC50 on hNav1.7 [1] stood at 3.85 nM; on hNav1.7 [2] it was 38 nM.

For `CN(C)[C@H]1C[C@H](c2cccc(C(F)(F)F)c2)CC[C@@H]1Nc1cc(F)c(S(=O)(=O)Nc2ccncn2)cc1Cl` [Example 218, 5-chloro-4-(((1S,2S,4R)-2-(dimethylamino)-4-(3-(trifluoromethyl)phenyl)-cyclohexyl)amino)-2-fluoro-N-(pyrimidin-4-yl)benzenesulfonamide], the figures for the half-maximal inhibitory concentration (IC50) on hNav1.7 [1] and on hNav1.7 [2] were 1.6 nM and 20.9 nM, respectively.

For `CC(=O)N1CC(N(C)[C@H]2CCCC[C@@H]2Nc2cc(F)c(S(=O)(=O)Nc3nccs3)cc2Cl)C1` [Example 148, 4-(((1S,2S)-2-((1-Acetylazetidin-3-yl)(methyl)amino)cyclohexyl)amino)-5-chloro-2-fluoro-N-(thiazol-2-yl)benzenesulfonamide], the IC50 was 25.3 nM on hNav1.7 [1] and 305 nM on hNav1.7 [2].
